Paper PMC4413215, “New Prenylated Aeruginosin, Microphycin, Anabaenopeptin and Micropeptin Analogues from a Microcystis Bloom Material Collected in Kibbutz Kfar Blum, Israel” (Marine Drugs, 2015)
Where two headings read alike, the source gives them in different places. *1 amine or outer side, *2 acyl side, *3 side chain or, on linkers, in order; H or OH if unused. Where a SMILES comes first, the peptide text is derived from it. Bridges are numbered along the chain shown (N, C = ends). [ ]: non-standard residue; d: D form. NMehTyr = CN[C@@H](CCc1ccc(O)cc1)C(=O)O; hPhe = N[C@@H](CCc1ccccc1)C(=O)O; CO = O=C([*:1])[*:2]

Legend:
chymotrypsin = chymotrypsin (Bos taurus, UniProt P00766); test: Protease inhibition assay: chymotrypsin; assay type: biochemical; settings: for inhibition of chymotrypsin, in words: discussion of Table 5
Protocol: (§1) Optical rotation values were obtained on a Jasco P-1010 polarimeter at the sodium D line (589 nm; concentrations are reported in g/100 mL. UV spectra were recorded on an Agilent 8453 spectrophotometer (Santa Clara, California, CA, USA). IR spectra were recorded on a Bruker Tensor 27 FT-IR instrument (Billerica, Massachusetts, MA, USA). NMR spectra were recorded on a Bruker DRX-500 spectrometer at 500.13 MHz for ^1H and 125.76 MHz for ^13C and a Bruker Avance 400 Spectrometer at 400.13 MHz for ^1H, 100.62 MHz for ^13C (Billerica, Massachusetts, MA, USA). DEPT, COSY-45, gTOCSY, gROESY, gHSQC, gHMQC and gHMBC spectra were recorded using standard Bruker pulse sequences. Mass spectra and MS/MS analyses were recorded on a Waters MaldiSynapt instrument (Milford, Massachusetts, MA, USA). HPLC separations were performed on a Jasco HPLC system (Halifax, Nova-Scotia, NS, Canada) (Model PU-2080-plus pump, Model LG-2080-04 Quaternary gradient unit and Model MD-2010-plus Multi-wavelength detector). An Elisa ELx808 reader (Bio-Tek Instruments, Inc (Winooski, VT, USA)) was used for protease inhibition assays.
(§2) The procedures used to determine the inhibitory activity of the new compounds on trypsin and chymotrypsin were described in a previous paper. The range of concentrations used in the assays was between 45.5 μM and 0.011 μM.

trypsin [1] = target: T1, trypsin (Bos taurus, UniProt P00760); test: Protease inhibition assay: trypsin; assay type: biochemical; settings: discussion of Table 5
T1 sequence (P00760 24-246): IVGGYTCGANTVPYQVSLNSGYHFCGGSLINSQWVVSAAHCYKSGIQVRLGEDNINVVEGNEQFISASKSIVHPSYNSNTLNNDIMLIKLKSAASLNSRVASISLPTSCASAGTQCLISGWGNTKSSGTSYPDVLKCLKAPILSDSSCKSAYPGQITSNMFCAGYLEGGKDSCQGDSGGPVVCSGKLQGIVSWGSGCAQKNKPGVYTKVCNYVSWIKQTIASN
Protocol: as §1, §2

trypsin [2] = target: T1, trypsin; parameters: method as in PMID 22280481; settings: read-out: IC50 (against trypsin); cited from earlier work

Which IC50 (chymotrypsin; concentration range 45.5 μM to 0.011 μM, read-out: Chymotrypsin (IC50 in μM)) does the source give for CC(C)=CCN(CCCCNC(=O)C1CC2CCC(O)CC2N1C(=O)C(Cc1ccccc1)NC(=O)C(O)Cc1ccc(O)cc1)C(=N)N (centres unmarked) [Aeruginosin KB676 (1), Aeruginosin KB676] here?
The IC50 was over 45.5 µM.

And the “inhibition of trypsin, in words” value (trypsin [1])?
The value was “weak inhibitory activity”.

Which IC50 (chymotrypsin) does the source give for CC[C@H](C)[C@@H]1NC(=O)[C@H](NC(=O)N[C@@H](CCCNC(=N)N)C(=O)O)CCCCNC(=O)[C@H]([C@@H](C)CC)NC(=O)[C@H](CCc2ccc(O)cc2)N(C)C(=O)[C@H](CCc2ccccc2)NC1=O [Anabaenopeptin KB906 (3), Anabaenopeptin KB906] ({Arg-CO}-[dK]I[hPhe][NMehTyr]I; lactam 1-C) here?
The IC50 was over 45.5 µM.

Which IC50 (chymotrypsin) does the source give for CCCC(=O)N[C@@H](CC(=O)O)C(=O)N[C@@H]1C(=O)N[C@@H](CCCNC(=N)N)C(=O)N[C@H]2CC[C@@H](O)N(C2=O)[C@@H](C(C)C)C(=O)N(C)[C@@H](Cc2ccccc2)C(=O)N[C@@H]([C@@H](C)CC)C(=O)O[C@@H]1C [Micropeptin KB928 (5), Micropeptin KB928] here?
The IC50 was over 45.5 µM.

Which IC50 (chymotrypsin) does the source give for CCCC(=O)N[C@@H](CC(=O)OC)C(=O)N[C@@H]1C(=O)N[C@@H](CCCNC(=N)N)C(=O)N[C@H]2CC[C@@H](OC)N(C2=O)[C@@H](C(C)C)C(=O)N(C)[C@@H](Cc2ccccc2)C(=O)N[C@@H]([C@@H](C)CC)C(=O)O[C@@H]1C [Micropeptin KB956 (6), Micropeptin KB956] here?
Its IC50 is over 45.5 µM.

With CCCCCC(=O)N[C@@H](CC(=O)OC)C(=O)N[C@@H]1C(=O)N[C@@H](CCCNC(=N)N)C(=O)N[C@H]2CC[C@@H](O)N(C2=O)[C@@H](C(C)C)C(=O)N(C)[C@@H](Cc2ccccc2)C(=O)N[C@@H]([C@@H](C)CC)C(=O)O[C@@H]1C [Micropeptin KB970A (7), Micropeptin KB970A] as the compound, how does the IC50 (chymotrypsin) read?
Its IC50 is over 45.5 µM.

With CCCCCC(=O)N[C@@H](CC(=O)O)C(=O)N[C@@H]1C(=O)N[C@@H](CCCNC(=N)N)C(=O)N[C@H]2CC[C@@H](OC)N(C2=O)[C@@H](C(C)C)C(=O)N(C)[C@@H](Cc2ccccc2)C(=O)N[C@@H]([C@@H](C)CC)C(=O)O[C@@H]1C [Micropeptin KB970B (8), Micropeptin KB970B] as the compound, how does the IC50 (chymotrypsin) read?
Its IC50 is over 45.5 µM.

Which IC50 (chymotrypsin) does the source give for CCCCCC(=O)N[C@@H](CC(=O)OC)C(=O)N[C@@H]1C(=O)N[C@@H](CCCNC(=N)N)C(=O)N[C@H]2CC[C@@H](OC)N(C2=O)[C@@H](C(C)C)C(=O)N(C)[C@@H](Cc2ccccc2)C(=O)N[C@@H](C(C)C)C(=O)O[C@@H]1C [Micropeptin KB970C (10), Micropeptin KB970C] here?
Its IC50 is over 45.5 µM.

For CCCCCC(=O)N[C@@H](CC(=O)OC)C(=O)N[C@@H]1C(=O)N[C@@H](CCCNC(=N)N)C(=O)N[C@H]2CC[C@@H](OC)N(C2=O)[C@@H](C(C)C)C(=O)N(C)[C@@H](Cc2ccccc2)C(=O)N[C@@H]([C@@H](C)CC)C(=O)O[C@@H]1C [Micropeptin KB984 (9), Micropeptin KB984], which IC50 (chymotrypsin) is on record?
Its IC50 is over 45.5 µM.

Which IC50 (chymotrypsin) does the source give for CC[C@H](C)[C@H]1C(=O)N(C)[C@@H](Cc2ccccc2)C(=O)N[C@@H](C(C)C)C(=O)O[C@H](C)[C@H](NC(=O)[C@H](CC(N)=O)NC(=O)[C@H](O)Cc2ccc(O)cc2)C(=O)N[C@@H](CC(C)C)C(=O)N[C@H]2CC[C@@H](OC)N1C2=O [Micropeptin KB992 (12), Micropeptin KB992] here?
The IC50 was 0.87 µM.

And the “inhibition of chymotrypsin, in words” value (chymotrypsin)?
The value was “inhibition of chymotrypsin”.

Which IC50 (chymotrypsin) does the source give for CC[C@H](C)[C@@H]1NC(=O)[C@H](Cc2ccccc2)N(C)C(=O)[C@H](C(C)C)N2C(=O)[C@H](CC[C@H]2O)NC(=O)[C@H](C[C@H]2C=C[C@H](O)CC2)NC(=O)[C@@H](NC(=O)[C@H](CCC(N)=O)NC(=O)[C@H](O)Cc2ccc(O)cc2)[C@@H](C)OC1=O [Micropeptin KB1046 (13), Micropeptin KB1046] here?
Its IC50 is 0.22 µM.

What about the “inhibition of chymotrypsin, in words” value (chymotrypsin) of the same compound?
The value was “inhibition of chymotrypsin”.

With CCCCCC(=O)N[C@@H](CC(=O)OC)C(=O)N[C@@H]1C(=O)N[C@@H](CCCNC(=N)N)C(=O)N[C@H]2CC[C@@H](OC)N(C2=O)[C@@H]([C@@H](C)CC)C(=O)N(C)[C@@H](Cc2ccc(O)c(Cl)c2)C(=O)N[C@@H]([C@H](C)CC)C(=O)O[C@@H]1C [Micropeptin KB1048 (11), Micropeptin KB1048] as the compound, how does the IC50 (chymotrypsin) read?
Its IC50 is 0.63 µM.

What about the “inhibition of chymotrypsin, in words” value (chymotrypsin) of the same compound?
Its value is “inhibition of chymotrypsin”.

Which IC50 (chymotrypsin) does the source give for CC(C)C[C@@H]1NC(=O)[C@@H]2CCCN2C(=O)[C@H](C)NC(=O)[C@H](CCC(N)=O)NC(=O)[C@H](C)NC(=O)[C@H](Cc2ccccc2)NC(=O)[C@H](Cc2ccccc2)NC(=O)[C@H](Cc2ccccc2)NC1=O [Microphycin KB921 (2), Microphycin KB921] (cyclo(APLFFFAQ)) here?
Its IC50 is over 45.5 µM.

With NC(N)=NCCCCNC(=O)[C@H]1C[C@H]2CC[C@@H](O)C[C@H]2N1C(=O)[C@@H](Cc1ccccc1)NC(=O)[C@H](O)Cc1ccc(O)cc1 [aeruginosin KT608B] as the compound, how does the IC50 (trypsin [2]) read?
The IC50 was 1.3 µM.
